Counter-ions that a name gives are not always drawn.

T1 sequence (P34972 whole entry): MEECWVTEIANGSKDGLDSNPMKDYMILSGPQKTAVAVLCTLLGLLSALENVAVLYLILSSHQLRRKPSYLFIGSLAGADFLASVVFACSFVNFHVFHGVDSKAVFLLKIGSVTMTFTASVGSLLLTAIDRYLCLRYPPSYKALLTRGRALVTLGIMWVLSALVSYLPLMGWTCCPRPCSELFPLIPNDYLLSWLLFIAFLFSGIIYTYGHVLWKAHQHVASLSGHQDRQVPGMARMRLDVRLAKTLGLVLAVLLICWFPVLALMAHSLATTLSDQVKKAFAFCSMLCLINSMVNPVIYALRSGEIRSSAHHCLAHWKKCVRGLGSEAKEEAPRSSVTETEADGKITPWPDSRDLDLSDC

This experiment has as its target T1, human cannabinoid CB2 receptor (Homo sapiens, UniProt P34972).
T1 construct: expressed in transfected cells; host or cells: Saccharomyces cerevisiae strain MMY23 (cassette integrated at the ura3 locus, GPD promoter)
In words: Cannabinoid CB2 receptor agonist activity, yeast assay. The following applies: relative to HU210; averages of a number of experiments; read-out: efficacy (Emax) at the cloned human cannabinoid CB2 receptor. The experiment is classed as cell-based. On the procedure: The cannabinoid CB2 receptor agonist activity of compounds of formula (I) was determined in accordance with the following experimental method.
Yeast (Saccharomyces cerevisiae) cells expressing the human cannabinoid CB2 receptor were generated by integration of an expression cassette into the ura3 chromosomal locus of yeast strain MMY23. This cassette consisted of DNA sequence encoding the human CB2 receptor flanked by the yeast GPD promoter to the 5′ end of CB2 and a yeast transcriptional terminator sequence to the 3′ end of CB2. MMY23 expresses a yeast/mammalian chimeric G-protein alpha subunit in which the C-terminal 5 amino acids of Gpa1 are replaced with the C-terminal 5 amino acids of human Gαi½ (as described in Brown et al. (2000), Yeast 16:11-22). Cells were grown at 30° C. in liquid Synthetic Complete (SC) yeast media (Guthrie and Fink (1991), Methods in Enzymology, Vol. 194) lacking uracil, tryptophan, adenine and leucine to late logarithmic phase (approximately 6 OD600/ml).
Agonists were prepared as […] solutions in DMSO. EC50 values (the concentration required to produce 50% maximal response) were estimated using 4 fold dilutions (BiomekFX, Beckman) into DMSO. Agonist solutions in DMSO (1% final assay volume) were transferred into black microtitre plates from Greiner (384-well). Cells were suspended at a density of 0.2 OD600/ml in SC media lacking histidine, uracil, tryptophan, adenine and leucine and supplemented with 10 mM 3-aminotriazole, 0.1M sodium phosphate pH 7.0, and 10 μM fluorescein di-β-D-glucopyranoside (FDGlu). This mixture (50 μl per well) was added to agonist in the assay plates (Multidrop 384, Labsystems). After incubation at 30° C. for 24 hours, fluorescence resulting from degradation of FDGlu to fluorescein due to exoglucanase, an endogenous yeast enzyme produced during agonist-stimulated cell growth, was determined using a fluorescence microtitre plate reader (Tecan Spectrofluor or LJL Analyst excitation wavelength: 485 nm; emission wavelength: 535 nm). Fluorescence was plotted against compound concentration and iteratively curve fitted using a four parameter fit to generate a concentration effect value. Efficacy (Emax) was calculated from the equation
Emax=Max[compound X]−Min[compound X]/Max[HU210]−Min[HU210]×100%
where Max[compound X] and Min[compound X] are the fitted maximum and minimum respectively from the concentration effect curve for compound X, and Max[HU210] and Min[HU210] are the fitted maximum and minimum respectively from the concentration effect curve for (6aR,10aR)-3-(1,1′-Dimethylheptyl)-6a,7,10,10a-tetrahydro-1-hydroxy-6,6-dimethyl-6H-dibenzo [b,d]pyran-9-methanol (HU210; available from Tocris). Equieffective molar ratio (EMR) values were calculated from the equation
Where EC50[compound X] is the EC50 of compound X and EC50[HU210] is the EC50of HU210.
Take `Cc1c(Nc2ncc(C(=O)N3CCOCC3)c3c2ncn3C)cccc1C(F)(F)F` [Example 20, 1-Methyl-N-[2-methyl-3-(trifluoromethyl)phenyl]-7-(4-morpholinylcarbonyl)-1H-imidazo[4,5-c]pyridin-4-amine hydrochloride salt]: the maximum response (Emax) was above 50%. Regarding `Cn1cnc2c(Nc3ccc(F)c(Cl)c3)ncc(C(=O)N3CCOCC3)c21` [Example 22, N-(3-Chloro-4-fluorophenyl)-1-methyl-7-(4-morpholinylcarbonyl)-1H-imidazo[4,5-c]pyridin-4-amine hydrochloride salt], the maximal effect (Emax) is above 50%. As for `Cn1cnc2c(Oc3cccc(Cl)c3)ncc(C(=O)N3CCCCC3)c21` [Example 13, 4-[(3-Chlorophenyl)oxy]-1-methyl-7-(1-piperidinylcarbonyl)-1H-imidazo[4,5-c]pyridine hydrochloride salt], the Emax was above 50%. In the case of `Cn1cnc2c(Nc3ccc(Cl)cc3Cl)ncc(C(=O)N3CCCC3)c21` [Example 7, N-(2,4-Dichlorophenyl)-1-methyl-7-(1-pyrrolidinylcarbonyl)-1H-imidazo[4,5-c]pyridin-4-amine hydrochloride salt], the Emax is above 50%. Next, `Cn1cnc2c(Nc3cccc(F)c3)ncc(C(=O)N3CCOCC3)c21` [Example 18, N-(3-Fluorophenyl)-1-methyl-7-(4-morpholinylcarbonyl)-1H-imidazo[4,5-c]pyridin-4-amine hydrochloride salt]: above 50%; `Cn1cnc2c(Nc3cccc(Br)c3)ncc(C(=O)N3CCCCC3)c21` [Example 1, N-(3-Bromophenyl)-1-methyl-7-(1-piperidinylcarbonyl)-1H-imidazo[4,5-c]pyridin-4-amine hydrochloride salt]: above 50%; `Cn1cnc2c(Nc3cccc(C(F)(F)F)c3F)ncc(C(=O)N3CCOCC3)c21` [Example 21, N-[2-Fluoro-3-(trifluoromethyl)phenyl]-1-methyl-7-(4-morpholinylcarbonyl)-1H-imidazo[4,5-c]pyridin-4-amine hydrochloride salt]: above 50%. With `Cn1cnc2c(Nc3cccc(Br)c3)ncc(C(=O)N3CCCC3)c21` [Example 3, N-(3-Bromophenyl)-1-methyl-7-(1-pyrrolidinylcarbonyl)-1H-imidazo[4,5-c]pyridin-4-amine hydrochloride salt], the Emax is above 50%. Next, `Cn1cnc2c(Nc3cccc(Cl)c3)ncc(C(=O)N3CCCCC3)c21` [Example 10, N-(3-Chlorophenyl)-1-methyl-7-(1-piperidinylcarbonyl)-1H-imidazo[4,5-c]pyridin-4-amine hydrochloride salt]: above 50%; `CC(C)CNC(=O)c1cnc(Nc2cccc(Br)c2)c2ncn(C)c12` [Example 4, 4-[(3-Bromophenyl)amino]-1-methyl-N-(2-methylpropyl)-1H-imidazo[4,5-c]pyridine-7-carboxamide hydrochloride salt]: above 50%; `Cn1cnc2c(Nc3cccc(OC(F)(F)F)c3)ncc(C(=O)N3CCOCC3)c21` [Example 17, 1-Methyl-7-(4-morpholinylcarbonyl)-N-{3-[(trifluoromethyl)oxy]phenyl}-1H-imidazo[4,5-c]pyridin-4-amine hydrochloride salt]: above 50%. Take `Cn1cnc2c(Nc3ccc(Cl)cc3Cl)ncc(C(=O)N3CCOCC3)c21` [Example 5, N-(2,4-Dichlorophenyl)-1-methyl-7-(4-morpholinylcarbonyl)-1H-imidazo[4,5-c]pyridin-4-amine hydrochloride salt]: the maximal effect (Emax) was above 50%. On to `Cn1cnc2c(Oc3cccc(Cl)c3)ncc(C(=O)N3CCOCC3)c21` [Example 14, 4-1(3-Chlorophenyl)oxy]-1-methyl-7-(4-morpholinylcarbonyl)-1H-imidazo[4,5-c]pyridine hydrochloride salt], for which the Emax is above 50%. For `CC(C)CNC(=O)c1cnc(Nc2cccc(Cl)c2)c2ncn(C)c12` [Example 12, 4-[(3-Chlorophenyl)amino]-1-methyl-N-(2-methylpropyl)-1H-imidazo[4,5-c]pyridine-7-carboxamide hydrochloride salt], the maximal response (Emax) is above 50%.

The values are drawn from US20080221097A1, “Imidazopyridine Derivatives as Cannabinoid Receptor Ligands” (priority 2005, published 2008).
